IC50 data for 51 compounds are collected here from patent publication US7271181B2, “Inhibitors of p38” (Vertex Pharmaceuticals Incorporated, priority 2001, dated 2007).

This test has as its target T1, activated p38 (Homo sapiens, UniProt Q16539).
T1 construct: amplify the coding region of CSBP2 cDNA using a HeLa cell library; made in house; host or cells: Trichoplusia ni (Tn-368) High-Five insect cells, baculovirus (virus generated in Sf9)
Nature of the test: p38 inhibition assay: inhibition of phosphorylation of EGF receptor peptide. The conditions noted are these: activated p38 5 nM, EGF receptor peptide 200 μM, ATP 100 μM, 30° C, 30 minutes. The test is classed as biochemical. On the procedure: A. Inhibition of Phosphorylation of EGF Receptor Peptide
This assay was carried out in the presence of 10 mM MgCl2, 25 mM β-glycerophosphate, 10% glycerol and 100 mM HEPES buffer at pH 7.6. For a typical IC50 determination, a stock solution was prepared containing all of the above components and activated p38 (5 nM). The stock solution was aliquotted into vials. A fixed volume of DMSO or inhibitor in DMSO (final concentration of DMSO in reaction was 5%) was introduced to each vial, mixed and incubated for 15 minutes at room temperature. EGF receptor peptide, […], a phosphoryl acceptor in p38-catalyzed kinase reaction (1), was added to each vial to a final concentration of 200 μM. The kinase reaction was initiated with ATP (100 μM) and the vials were incubated at 30° C. After 30 minutes, the reactions were quenched with equal volume of 10% trifluoroacetic acid (TFA).
The phosphorylated peptide was quantified by HPLC analysis. Separation of phosphorylated peptide from the unphosphorylated peptide was achieved on a reverse phase column (Deltapak, 5 μm, C18 100D, Part no. 011795) with a binary gradient of water and acteonitrile, each containing 0.1% TFA. IC50 (concentration of inhibitor yielding 50% inhibition) was determined by plotting the percent (%) activity remaining against inhibitor concentration.

T1 sequence (Q16539 whole entry): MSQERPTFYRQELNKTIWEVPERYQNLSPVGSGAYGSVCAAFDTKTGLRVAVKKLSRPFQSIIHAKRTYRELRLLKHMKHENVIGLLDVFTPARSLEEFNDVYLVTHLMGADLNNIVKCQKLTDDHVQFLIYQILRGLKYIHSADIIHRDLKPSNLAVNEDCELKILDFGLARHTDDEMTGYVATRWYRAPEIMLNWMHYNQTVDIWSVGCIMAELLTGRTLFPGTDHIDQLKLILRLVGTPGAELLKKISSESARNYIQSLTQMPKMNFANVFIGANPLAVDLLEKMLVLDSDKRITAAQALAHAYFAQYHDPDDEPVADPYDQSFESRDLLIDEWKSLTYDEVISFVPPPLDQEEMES

With `Cc1occc1C(=O)c1ccc(Nc2c(F)cccc2F)nc1` [Compound 117], the IC50 (as a rule, the concentration that inhibits the measured activity by half) is no more than 1000 nM.
As for `O=C(c1ccc(Nc2c(F)cccc2F)nc1)c1sccc1-n1cccc1` [Compound 116], the 50% inhibitory concentration (IC50) is no more than 1000 nM.
With `O=C(c1ccc(Nc2c(F)cccc2F)nc1)c1ccc(Cl)c(Cl)c1` [Compound 109], the IC50 is no less than 10000 nM.
On to `CCOC(=O)C(=O)N(c1ccc(C(=O)c2cccc(C)c2)cn1)c1c(F)cccc1F` [Compound 613], for which the IC50 was no more than 1000 nM.
Take `O=C(c1ccc(Cl)cc1)c1ccc(Nc2c(F)cccc2F)nc1` [Compound 112]: the IC50 is no more than 1000 nM.
As for `Cc1cccc(C(=O)c2ccc(N(C(=O)C3CCCCC3)c3c(F)cccc3F)nc2)c1` [Compound 607], the figure is no more than 1000 nM; as for `O=C(c1ccc(N(C(=O)c2sc3ccccc3c2Cl)c2c(F)cccc2F)nc1)c1sccc1-n1cccc1` [Compound 622], no more than 1000 nM.
On to `Cc1cccc(C(=O)c2ccc(Nc3c(F)cccc3F)nc2)c1` [Compound 104], for which the IC50 was no more than 1000 nM.
`O=C(c1ccc(Nc2c(F)cccc2F)nc1)c1ccc2ccccc2c1` [Compound 110] gave a concentration for half-maximal inhibition (IC50) of no more than 1000 nM.
For `COc1ccc(C(=O)c2ccc(Nc3c(F)cccc3F)nc2)cc1OC` [Compound 111], the IC50 was 1000 to 10000 nM.
Consider `CCOC(=O)C(=O)N(c1ccc(C(=O)c2cc(OC)cc(OC)c2)cn1)c1c(F)cccc1F` [Compound 619], for which the IC50 was no more than 1000 nM.
For `Fc1cccc(F)c1Nc1ccc(Sc2ccccc2)cn1` [Compound 503], the IC50 was no more than 1000 nM.
The compound `O=S(=O)(c1ccccc1)c1ccc(Nc2c(F)cccc2F)nc1` [Compound 502] showed an IC50 of no less than 10000 nM.
As to `COC(=O)CCC(=O)N(c1ccc(C(=O)c2cccc(C)c2)cn1)c1c(F)cccc1F` [Compound 608], the IC50 was 1000 to 10000 nM.
The compound `Cc1cccc(C(=O)c2ccc(N(C(=O)c3snnc3C)c3c(F)cccc3F)nc2)c1` [Compound 603] registered an IC50 of 1000 to 10000 nM.
`N#Cc1ccc(C(=O)c2ccc(Nc3c(F)cccc3F)nc2)cc1` [Compound 103] registered an IC50 of 1000 to 10000 nM.
Compound `CCOC(=O)C(=O)N(c1ccc(C(=O)c2ccc(Cl)c(C)c2)cn1)c1c(F)cccc1F` [Compound 618] came in with an IC50 of 1000 to 10000 nM.
For `Cc1cc(C(=O)c2ccc(N(C(=O)C(C)Oc3ccccc3)c3c(F)cccc3F)nc2)ccc1Cl` (stereo not drawn) [Compound 617], the IC50 lay within 1000 to 10000 nM.
With `Cc1cc(C(=O)c2ccc(N(C(=O)c3ccc(Br)cc3)c3c(F)cccc3F)nc2)ccc1Cl` [Compound 615], the IC50 is no less than 10000 nM.
For `[O-][S+](c1ccccc1)c1ccc(Nc2c(F)cccc2F)nc1` (stereo not drawn) [Compound 501], the IC50 was no less than 10000 nM.
Take `COc1cc(OC)cc(C(=O)c2ccc(Nc3c(F)cccc3F)nc2)c1` [Compound 115]: the half-inhibitory concentration (IC50) is no more than 1000 nM.
As for `NC(=O)C(c1cc(C(F)(F)F)cc(C(F)(F)F)c1)c1ccc(SCc2ccco2)nn1` (stereo not drawn) [Compound 301], the figure is 1000 to 10000 nM; as for `Cc1cccc(C(=O)c2ccc(N(C(=O)c3ccc(Br)cc3)c3c(F)cccc3F)nc2)c1` [Compound 606], no less than 10000 nM.
In turn, `Cc1cccc(C(=O)c2ccc(N(C(=O)CC(C)C)c3c(F)cccc3F)nc2)c1` [Compound 614] yielded an IC50 of no more than 1000 nM.
`Cc1cccc(C(=O)c2ccc(N(C(=O)c3sc4ccccc4c3Cl)c3c(F)cccc3F)nc2)c1` [Compound 609] displayed a half-inhibitory concentration (IC50) of 1000 to 10000 nM.
With `Cc1cccc(C(=O)c2ccc(N(C(=O)c3ccc(F)c(C(F)(F)F)c3)c3c(F)cccc3F)nc2)c1` [Compound 610], the IC50 was no more than 1000 nM.
Compound `CCCCc1ccc(Nc2c(F)cccc2F)nc1` [Compound 401] yielded an IC50 of no less than 10000 nM.
`Cc1cccc(C(=O)c2ccc(N(C(=O)C(C)(C)C)c3c(F)cccc3F)nc2)c1` [Compound 604] gave an IC50 of no more than 1000 nM.
`COCC(=O)N(c1ccc(C(=O)c2cccc(C)c2)cn1)c1c(F)cccc1F` [Compound 602]: the IC50 fell in the range of 1000 to 10000 nM.
The compound `O=C(c1ccc(N(C(=O)c2ccc(Br)cc2)c2c(F)cccc2F)nc1)c1sccc1-n1cccc1` [Compound 620] came in with an IC50 of no more than 1000 nM.
In turn, `Cc1cc(C(=O)c2ccc(Nc3c(F)cccc3F)nc2)ccc1Cl` [Compound 114] returned an IC50 of no more than 1000 nM.
On to `CC(C)(C)c1ccc(C(=O)c2ccc(Nc3c(F)cccc3F)nc2)cc1` [Compound 105], for which the IC50 is no more than 1000 nM.
As for `COC(=O)CCC(=O)N(c1ccc(C(=O)c2ccc(Cl)c(C)c2)cn1)c1c(F)cccc1F` [Compound 616], the IC50 is no less than 10000 nM.
As for `O=C(c1ccccc1)c1ccc(Nc2c(F)cccc2F)nc1` [Compound 101, (6-(2,6-Difluorophenylamino)-pyridin-3-yl]-phenylmethanone], the IC50 was no more than 1000 nM.
As for `Cc1cccc(C(=O)c2ccc(N(C(=O)C(C)Oc3ccccc3)c3c(F)cccc3F)nc2)c1` (stereo not drawn) [Compound 612], the figure is no less than 10000 nM; as for `O=C(c1ccc(Nc2c(F)cccc2F)nc1)c1cc2ccccc2s1` [Compound 120], 1000 to 10000 nM.
`CC(=O)N(c1ccc(C(=O)c2cccc(C)c2)cn1)c1c(F)cccc1F` [Compound 605] returned an IC50 of no more than 1000 nM.
In turn, `OC(c1ccccc1)c1ccc(Nc2c(F)cccc2F)nc1` (stereo not drawn) [Compound 201] had an IC50 of no more than 1000 nM.
`Cc1cccc(C(=O)c2ccc(N(C(=O)c3cccc(C(F)(F)F)c3)c3c(F)cccc3F)nc2)c1` [Compound 611] had an IC50 of no more than 1000 nM.
Compound `O=C(c1ccc(Br)cc1)c1ccc(Nc2c(F)cccc2F)nc1` [Compound 106] came in with an IC50 of no more than 1000 nM.
Take `CC(C)CC(=O)c1ccc(Nc2c(F)cccc2F)nc1` [Compound 119]: the IC50 was no more than 1000 nM.
As for `O=C(c1ccc(Nc2c(F)cccc2F)nc1)c1ccccc1Cl` [Compound 107], the figure is no more than 1000 nM; as for `O=C(c1ccc(Nc2c(F)cccc2F)nc1)c1cc(Cl)ccc1Cl` [Compound 113], no more than 1000 nM.
`CC(Oc1ccccc1)C(=O)N(c1ccc(C(=O)c2sccc2-n2cccc2)cn1)c1c(F)cccc1F` (stereo not drawn) [Compound 624] came in with an IC50 of no more than 1000 nM.
The compound `COC(=O)CCC(=O)N(c1ccc(C(=O)c2sccc2-n2cccc2)cn1)c1c(F)cccc1F` [Compound 621] had an IC50 of 1000 to 10000 nM.
In turn, `COc1cc(C(=O)c2ccc(Nc3c(F)cccc3F)nc2)cc(OC)c1OC` [Compound 118] showed an IC50 of 1000 to 10000 nM.
The compound `O=C(c1ccc(-c2ccccc2)cc1)c1ccc(Nc2c(F)cccc2F)nc1` [Compound 108] yielded an IC50 of no more than 1000 nM.
Compound `NC(=O)N(c1ccc(C#CCOc2c(Cl)cccc2Cl)cn1)c1c(F)cccc1F` [Compound 402] had an IC50 of no less than 10000 nM.
Regarding `O=C(c1ccc(Nc2c(F)cccc2F)nc1)c1cccc(Cl)c1` [Compound 102], the IC50 is no more than 1000 nM.
As for `O=C(c1ccc(N(C(=O)c2cccc(C(F)(F)F)c2)c2c(F)cccc2F)nc1)c1sccc1-n1cccc1` [Compound 623], the figure is no more than 1000 nM; as for `Cc1cccc(C(=O)c2ccc(N(C(=O)c3ccccc3)c3c(F)cccc3F)nc2)c1` [Compound 601], 1000 to 10000 nM.
